The results in this text go back to ChEMBL document CHEMBL1201862, “PubChem BioAssay data set” (2004).

Holding throughout (test): NCI anticancer screen, dose series, 48 h
Experiment [1] concerns BT-549.
For experiment [2], the system named is COLO 205.
Experiment [3] relates to HCT-15.
For experiment [4], the system named is K562.
Experiment [5] deals with LOX IMVI.
In experiment [6] the test system is MCF7.
Experiment [7] deals with MDA-MB-231.
The subject of experiment [8] is MDA-MB-435.
In experiment [9] the test system is MOLT-4.
Experiment [10] has as its system NCI-H460.
Experiment [11] has as its system OVCAR-3.
The subject of experiment [12] is OVCAR-8.
Experiment [13] deals with SF-268.
Experiment [14] has as its system SF-539.
Experiment [15] has as its system SK-MEL-28.
For experiment [16], the system named is SK-OV-3.
The test system of experiment [17] is SN12C.
Experiment [18] concerns SR.
Experiment [19] relates to T47D.
In experiment [20] the test system is PC-3.

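Where inhibition never reached the appropriate level, the endpoint shown equals the highest concentration tested. Otherwise, values were interpolated linearly from a five-concentration, 48-hour dose response in 96-well plates. Here, GI50 denotes the concentration required for 50% inhibition of growth.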 Activity calls are given as the source filed them. No stated cut-off is given here; in the data, active = GI50 up to about 1.1 µM and inactive = higher.

`O=S1(=O)NN=C(NCc2ccc(F)cc2)c2ccccc21`: the GI50 in [1] is 67.5 µM (inactive); in [2] it was > 76.4 µM (inactive); in experiment [3] it was more than 64.1 µM; in experiment [4], 21 µM (inactive); in [5], 36.3 µM (inactive); in experiment [6], > 100 µM (inactive). The GI50 in [7] is > 100 µM (inactive); in [8], > 100 µM (inactive); in [9] it was > 36 µM (inactive); in experiment [10], > 31.6 µM (inactive); in [11], 67.5 µM (inactive); in [12] it was > 94.2 µM (inactive). For the same compound, the GI50 in experiment [13] is > 100 µM (inactive); in [14], > 85.5 µM (inactive); in experiment [15], > 100 µM (inactive); in [16], 50.6 µM (inactive); in experiment [17], > 100 µM (inactive); in experiment [18], > 44.7 µM (inactive). For the same compound, the GI50 in [19] was > 100 µM (inactive).
Consider `O=c1c2ccccc2nnn1-c1n[nH]c2ccccc12`, for which the GI50 in experiment [1] is > 100 µM (inactive); in [2], > 100 µM (inactive); in experiment [3] it was more than 100 µM; in experiment [6] it was > 100 µM (inactive); in experiment [7], > 100 µM (inactive); in [8], > 100 µM (inactive). For the same compound, the GI50 in experiment [10], in experiment [11], in experiment [20], in [13], in [14] and in experiment [15] was > 100 µM (inactive) each time. For the same compound, the GI50 in experiment [17] and in experiment [19] was > 100 µM (inactive) in each case.
For the compound `O=C1CSC(c2c[nH]c3ccccc23)N1c1ccc(Cl)cc1` (stereo unspecified), the GI50 in [1] was > 100 µM (inactive); in experiment [2], > 100 µM (inactive); in experiment [3], more than 100 µM; in experiment [4], > 100 µM (inactive); in [6], > 100 µM (inactive); in experiment [7], > 100 µM (inactive). Besides, the GI50 in [8], in [9], in experiment [10], in experiment [11], in [12] and in [13] was > 100 µM (inactive) in each case. Further, the GI50 in experiment [14], in [15], in experiment [16], in experiment [17] and in experiment [19] was > 100 µM (inactive) each time.
For the compound `Nc1nc(N)c(/N=N/c2ccc(C(=O)O)c(O)c2)c(N)n1`, the GI50 is > 100 µM (inactive) in [1]; > 100 µM (inactive) in [2]; more than 100 µM in experiment [3]; < 0.01 µM (active) in [4]; > 100 µM (inactive) in [5]; 61.4 µM (inactive) in experiment [6]. The GI50 in experiment [7] is > 100 µM (inactive); in experiment [8] it was > 100 µM (inactive); in experiment [9] it was > 100 µM (inactive); in experiment [10] it was > 100 µM (inactive); in experiment [11] it was 10.4 µM (inactive); in experiment [12] it was > 100 µM (inactive). Besides, the GI50 in experiment [20], in experiment [13], in experiment [14], in [15], in experiment [16] and in experiment [17] was > 100 µM (inactive) in each case. For the same compound, the GI50 in experiment [18] was > 100 µM (inactive).
As to `CCOC(CNCCC(=O)OC)OCC`, the GI50 in experiment [2] is > 10 µM (inactive); in experiment [3], more than 10 µM; in experiment [4] it was > 10 µM (inactive); in experiment [5] it was > 10 µM (inactive); in [6] it was > 10 µM (inactive); in experiment [7], > 10 µM (inactive). The GI50 in experiment [8], in [9], in [10], in experiment [11], in [12] and in experiment [20] was > 10 µM (inactive) throughout. In addition, the GI50 in [13], in experiment [14], in [15], in experiment [16], in experiment [17] and in experiment [18] was > 10 µM (inactive) each time. The GI50 in [19] was > 10 µM (inactive).
With `Cc1cc(Br)c(N2C3=C(CC4=C2CCCC4=O)C(=O)CCC3)c(Br)c1`, the GI50 is 51.3 µM (inactive) in experiment [1]; 29.1 µM in experiment [3]; 13.2 µM (inactive) in experiment [4]; 23.7 µM (inactive) in experiment [5]; 33.3 µM (inactive) in [6]; 15.4 µM (inactive) in experiment [9]. Also, the GI50 in experiment [10] was 31.5 µM (inactive); in experiment [11], 42.9 µM (inactive); in [12], 44.6 µM (inactive); in [20], 18.6 µM (inactive); in [13] it was 75.5 µM (inactive); in [14], > 100 µM (inactive). The GI50 was > 100 µM (inactive) in [15], > 100 µM (inactive) in experiment [16], 74.1 µM (inactive) in experiment [17] and 36.6 µM (inactive) in [18].
As for `CCOC1=C/C(=N\Nc2ccc([N+](=O)[O-])cc2)CCC1`, the GI50 in [1] is 13.6 µM (inactive); in [2] it was 15.3 µM (inactive); in [3] it was 7.94 µM; in experiment [4], 18.9 µM (inactive); in experiment [5], 8.77 µM (inactive); in [6], 18.3 µM (inactive). Besides, the GI50 was 27.9 µM (inactive) in experiment [7]; 16.8 µM (inactive) in experiment [8]; 4.83 µM (inactive) in experiment [9]; 25.4 µM (inactive) in experiment [10]; 29.9 µM (inactive) in experiment [11]; 16.4 µM (inactive) in experiment [12]. The GI50 is 53.6 µM (inactive) in experiment [20]; 11.3 µM (inactive) in experiment [13]; 48.1 µM (inactive) in experiment [14]; 23.2 µM (inactive) in experiment [15]; 44.7 µM (inactive) in [16]; 29.9 µM (inactive) in experiment [17]. The GI50 in experiment [18] was 4.53 µM (inactive).
With `Cc1cn(C2CC(N)C(CN)O2)c(=O)[nH]c1=O` (stereo unspecified), the GI50 in experiment [1] was > 100 µM (inactive); in [2], > 100 µM (inactive); in experiment [3], more than 100 µM; in experiment [4], > 100 µM (inactive); in experiment [6] it was > 100 µM (inactive); in experiment [8] it was > 100 µM (inactive). Also, the GI50 in experiment [9], in [10], in experiment [11], in [12], in [20] and in experiment [13] was > 100 µM (inactive) throughout. The GI50 in experiment [14] was > 100 µM (inactive); in [15], > 100 µM (inactive); in [16], > 100 µM (inactive); in experiment [17], 80.7 µM (inactive); in experiment [18], > 100 µM (inactive); in experiment [19] it was 37.8 µM (inactive).
Regarding `COc1ccc2c3c([nH]c2c1)CCN(CCCC(=O)c1ccc(F)cc1)C3`, the GI50 in experiment [2] is 12.8 µM (inactive); in experiment [3], 20.1 µM; in experiment [4], 16.6 µM (inactive); in experiment [5], 12.7 µM (inactive); in experiment [6] it was 17.3 µM (inactive); in experiment [7], 15.8 µM (inactive). Also, the GI50 in experiment [8] was 17.1 µM (inactive); in experiment [9], 16.7 µM (inactive); in experiment [10] it was 19.4 µM (inactive); in experiment [11], 18.8 µM (inactive); in experiment [12] it was 15.6 µM (inactive); in experiment [20], 12.6 µM (inactive). Also, the GI50 in experiment [13] is 16.8 µM (inactive); in [14], 9.89 µM (inactive); in [15] it was 15.3 µM (inactive); in experiment [16] it was 19.4 µM (inactive); in [17], 15.9 µM (inactive); in experiment [18], 18 µM (inactive). The GI50 in experiment [19] was 19 µM (inactive).
Consider `CCOC(=O)c1c(NC(=S)Nc2ccc(C)cc2)sc2c1CCN(C)C2`, for which the GI50 in experiment [1] was > 100 µM (inactive); in experiment [2], > 100 µM (inactive); in experiment [3] it was more than 100 µM; in [4] it was > 100 µM (inactive); in experiment [6], > 100 µM (inactive); in experiment [7] it was > 100 µM (inactive). Further, the GI50 in [9], in experiment [10], in [11], in experiment [12], in experiment [20] and in experiment [13] was > 100 µM (inactive) each time. Besides, the GI50 in experiment [14], in experiment [17] and in experiment [19] was > 100 µM (inactive) throughout.
For `Cc1ccc([S+]([O-])C[C@@]2(C(F)F)NC(=O)NC2=O)cc1` (stereo partly specified), the GI50 in experiment [1] is > 100 µM (inactive); in [2], > 100 µM (inactive); in [3] it was more than 100 µM; in [4] it was > 100 µM (inactive); in experiment [5], > 100 µM (inactive); in [7] it was > 100 µM (inactive). Moreover, the GI50 in [8], in experiment [9], in experiment [10], in [11], in experiment [12] and in experiment [20] was > 100 µM (inactive) each time. The GI50 in experiment [13], in [15], in experiment [16], in [18] and in experiment [19] was > 100 µM (inactive) throughout.
For `Clc1sc(Cl)c2c1[C@H](Cl)C[C@@H]2Cl`, the GI50 in experiment [1] was 26.5 µM (inactive); in [2], 29.2 µM (inactive); in experiment [3] it was 20.2 µM; in experiment [4], 6 µM (inactive); in experiment [5], 9.46 µM (inactive); in [6], 6.52 µM (inactive). Moreover, the GI50 in experiment [7] is 32.1 µM (inactive); in experiment [8], 18.2 µM (inactive); in experiment [9], 50.2 µM (inactive); in experiment [10], 49.2 µM (inactive); in experiment [11], 24.2 µM (inactive); in [12], 18.4 µM (inactive). The GI50 in experiment [13] is 17.8 µM (inactive); in experiment [14], 18.7 µM (inactive); in experiment [15] it was 17.5 µM (inactive); in experiment [16] it was 54 µM (inactive); in experiment [17] it was 16.8 µM (inactive); in experiment [18], 58.9 µM (inactive). In addition, the GI50 in [19] was 17.6 µM (inactive).
